Assay results taken from patent US20190040083A1 (priority 2016, published 2019).
Values after ≈ are worked out from the molar mass of the structure shown.

Columns and labels:
[1] = system: human hepatic cell line (HepG2 ATCC HB-8065); assay: cells; details: HepG2, 24 h, read-out: IC50 (μg/mL) HepG2
[2] = system: Staphylococcus aureus ATCC 29213; assay: microbe, parasite or virus in culture; format: cell-based; details: ATCC29213
[3] = system: Klebsiella pneumoniae ATCC 700603; assay: microbe, parasite or virus in culture; format: cell-based; details: ATCC700603
[4] = system: Acinetobacter baumannii ATCC 19606; assay: microbe, parasite or virus in culture; format: cell-based; details: ATCC19606
[5] = system: Haemophilus influenzae ATCC 49247; assay: microbe, parasite or virus in culture; format: cell-based; details: ATCC49247
[6] = system: Escherichia coli ATCC 25922; assay: microbe, parasite or virus in culture; format: cell-based; details: ATCC25922
[7] = system: Streptococcus pneumoniae ATCC 49619; assay: microbe, parasite or virus in culture; format: cell-based; details: ATCC49619
[8] = system: Enterobacter cloacae NCTC 13406; assay: microbe, parasite or virus in culture; format: cell-based; details: NCTC13406
[9] = system: Pseudomonas aeruginosa ATCC 27853; assay: microbe, parasite or virus in culture; format: cell-based; details: ATCC27853
[10] = system: Acinetobacter baumannii NCTC 13420; assay: microbe, parasite or virus in culture; format: cell-based; details: NCTC13420

| Structure (SMILES) | IC50 [1] [µg/mL] | MIC [2] [µg/mL] | MIC [3] [µg/mL] | MIC [4] [µg/mL] | MIC [5] [µg/mL] | MIC [6] [µg/mL] | MIC [7] [µg/mL] | MIC [8] [µg/mL] | MIC [9] [µg/mL] | MIC [10] [µg/mL] |
| --- | --- | --- | --- | --- | --- | --- | --- | --- | --- | --- |
| O=C1COc2ccc(N3C(=O)O[C@H]4CN(CCCn5c(=O)ccc6ccccc65)CC[C@H]43)nc2N1 (relative stereo) [Compound 2, rel-1-{3-[(3aR*,7aS*)-2-oxo-1-{3-oxo-2H,3H,4H-pyrido[3,2-b][1,4]oxazin-6-yl}-octahydro-[1,3]oxazolo[5,4-c]pyridin-5-yl]propyl}-1,2-dihydroquinolin-2-one] | 10 to 100 (≈ 21 to 210 µM) | < 1 | 10 to 100 (≈ 21 to 210 µM) | 1 to 10 (≈ 2.1 to 21 µM) | 1 to 10 (≈ 2.1 to 21 µM) | 1 to 10 (≈ 2.1 to 21 µM) | < 1 | 10 to 100 (≈ 21 to 210 µM) | 10 to 100 (≈ 21 to 210 µM) | < 1 |
| N#Cc1ccc2ccc(=O)n(CCCN3CC[C@@H]4[C@H](C3)OC(=O)N4c3ccc4c(n3)NC(=O)CO4)c2c1 (relative stereo) [Compound 6, rel-1-{3-[(3aR*,7aS*)-2-oxo-1-{3-oxo-2H,3H,4H-pyrido[3,2-b][1,4]oxazin-6-yl}-octahydro-[1,3]oxazolo[5,4-c]pyridin-5-yl]propyl}-2-oxo-1,2-dihydroquinoline-7-carbonitrile] | 10 to 100 (≈ 20 to 200 µM) | < 1 | 10 to 100 (≈ 20 to 200 µM) | 1 to 10 (≈ 2 to 20 µM) | 1 to 10 (≈ 2 to 20 µM) | < 1 | < 1 | 1 to 10 (≈ 2 to 20 µM) | 10 to 100 (≈ 20 to 200 µM) | < 1 |
| COc1ccc2ccc(=O)n(CCCN3CC[C@H]4[C@@H](C3)OC(=O)N4c3ccc4c(n3)NC(=O)CO4)c2n1 (relative stereo) [Compound 7, rel-1-{3-[(3aR*,7aS*)-2-oxo-1-{3-oxo-2H,3H,4H-pyrido[3,2-b][1,4]oxazin-6-yl}-octahydro-[1,3]oxazolo[5,4-c]pyridin-5-yl]propyl}-7-methoxy-1,2-dihydro-1,8-naphthyridin-2-one] | 10 to 100 (≈ 19.7 to 197 µM) | < 1 | 10 to 100 (≈ 19.7 to 197 µM) | < 1 | < 1 | < 1 | < 1 | 1 to 10 (≈ 1.97 to 19.7 µM) | 10 to 100 (≈ 19.7 to 197 µM) | < 1 |
| COc1ccc2ccc(=O)n(CCCN3CC[C@@H]4[C@@H](C3)OC(=O)N4c3ccc4c(n3)NC(=O)CO4)c2n1 (relative stereo) [Compound 9, rel-1-{3-[(3aR*,7aR*)-2-oxo-1-{3-oxo-2H,3H,4H-pyrido[3,2-b][1,4]oxazin-6-yl}-octahydro-[1,3]oxazolo[5,4-c]pyridin-5-yl]propyl}-7-methoxy-1,2-dihydro-1,8-naphthyridin-2-one] | 10 to 100 (≈ 19.7 to 197 µM) | < 1 | 10 to 100 (≈ 19.7 to 197 µM) | < 1 | < 1 | < 1 | < 1 | 1 to 10 (≈ 1.97 to 19.7 µM) | 1 to 10 (≈ 1.97 to 19.7 µM) | < 1 |
| N#Cc1ccc2ccc(=O)n(CCCN3CC[C@@H]4[C@@H](C3)OC(=O)N4c3ccc4c(n3)NC(=O)CO4)c2c1 (relative stereo) [Compound 10, rel-1-{3-[(3aR*,7aR*)-2-oxo-1-{3-oxo-2H,3H,4H-pyrido[3,2-b][1,4]oxazin-6-yl}-octahydro-[1,3]oxazolo[5,4-c]pyridin-5-yl]propyl}-2-oxo-1,2-dihydroquinoline-7-carbonitrile] | 10 to 100 (≈ 20 to 200 µM) | < 1 | 10 to 100 (≈ 20 to 200 µM) | < 1 | < 1 | < 1 | < 1 | 1 to 10 (≈ 2 to 20 µM) | 1 to 10 (≈ 2 to 20 µM) | < 1 |
